{
  "source": "patent US20120053168A1",
  "about": "“FUSED BENZOAZEPINES AS NEURONAL NICOTINIC ACETYLCHOLINE RECEPTOR LIGANDS” (Targacept, Inc., priority 2009, published 2012)",
  "system": "normal rats",
  "assay": "Novel Object Recognition (NOR) task",
  "format": "in vivo, rat",
  "method": "Episodic memory is a cognitive domain known to be impaired in Alzheimer's disease; the Novel Object Recognition task is a commonly used and quick, clean model used to assess potential cognitive benefit derived from the test compounds. Compound A (7,8,9,10-tetrahydro-6H-azepino[4,5-g]quinoxaline) improved long-term visual episodic/declarative memory as assessed by novel object recognition (NOR) task following oral dosing in normal rats. Memory was assessed by using the three-trial object recognition test. On the first day (exploratory trial), rats were allowed to explore an open arena (44.5×44.5×30.5 cm) for 6 min. On the second day (acquisition trial), rats were allowed to explore the same arena in the presence of two identical objects (both object A) for 3 minutes. On the third day (retention or recall trial), performance was evaluated by allowing the same animal to re-explore the arena for 3 minutes in the presence of two different objects: the familiar object A and a novel object B. An inter-trial interval of 24 hours was imposed between the three NOR trials. Recognition memory was assessed by comparing the time spent exploring a novel (object B) versus a familiar (object A) object during the recall trial. Recognition index was assessed for each animal and expressed as a ratio ((time B/time A+time B)×100).\nCompound A was evaluated for its duration of effect in the NOR task in normal rats. Using similar experimental procedures as described earlier, 0.03, 0.1, and 0.3 mg/kg (0.15, 0.5 and 1.51 μmol/kg) Compound A was orally administered to animals 30 minutes prior to placement in the arena for the exploratory and acquisition trials. For the recall trial (i.e., third day of dosing), animals were placed in the arena at 6 h, post administration.\nA follow-up NOR study evaluated the duration of effect of Compound A following a 6 h pre-treatment prior to the recall trial.",
  "data": [
    {"compound": "c1cnc2cc3c(cc2n1)CCNCC3", "note": "[Compound A, 7,8,9,10-tetrahydro-6H-azepino[4,5-g]quinoxaline]", "values": [
      {"measurement": "recognition index", "setting": "0.03 mg/kg (0.15 μmol/kg) p.o., 6 h pre-treatment prior to the recall trial, vehicle 52±0.5%", "result": "64±3", "unit": "%"},
      {"measurement": "recognition index", "setting": "0.3 mg/kg (1.5 μmol/kg) p.o., 30 minutes before the three trials, vehicle 50±0.5%", "result": "69±5", "unit": "%"},
      {"measurement": "recognition index", "setting": "0.3 mg/kg (1.5 μmol/kg) p.o., 6 h pre-treatment prior to the recall trial, vehicle 52±0.5%", "result": "68±3", "unit": "%"},
      {"measurement": "recognition index", "setting": "3 mg/kg (15.1 μmol/kg) p.o., 30 minutes before the three trials, vehicle 50±0.5%", "result": "65±3", "unit": "%"},
      {"measurement": "duration of effect on recognition memory index", "setting": "0.15 and 1.51 μmol/kg p.o., recall trial 6 h post administration", "result": "facilitated recognition memory index for up to 6 h after dosing"},
      {"measurement": "effect on recognition memory (enhancement of recognition index vs vehicle)", "setting": "0.3 and 3 mg/kg p.o., 30 minutes before the three trials", "result": "facilitated recognition memory"}
    ]}
  ]
}
